Patent publication US4292317A, “1,4-Dihydro-quinoline-3-carboxylic acid derivatives, process for their preparation and compositions containing them” (Laboratorie Roger Bellon, priority 1977, dated 1981)
In brackets after ≈: the same amount, converted by molar mass.

Key:
Type in all cases: cell-based
[1] = test system: Pr. vulgaris 12-53; experiment: M.I.C. in vitro, nutrient agar dilution; conditions: Proteus vulgaris, 1253, 18 h; Table III; Pr. vulgaris 12-53; read-out: M.I.C.
Method: (§1) After sterilisation at 120° C., the pH was 6.8.
(§2) The minimum inhibitory concentrations (M.I.C.) were determined by dilution of the test compounds in this mixture, the concentration ranging from 0.05 to 100 μg/cm^3 in a geometric progression with a factor of 2.
(§3) The inoculation of the dishes was carried out by means of a multiple inoculator with 10^-3 dilutions of 18 hour old broth cultures.
(§4) The dishes were placed in an oven at 37° C. and the readings were taken afer an incubation time of 18 hours. The M.I.C. was taken as the lowest concentration which inhibited a culture.

[2] = test system: S. enteritidis Danysz; experiment: M.I.C. in vitro, nutrient agar dilution; conditions: Salmonella enterica, 18 h; Table III; S. enteritidis Danysz; read-out: M.I.C.
Method: as §1, §2, §3, §4

[3] = test system: Ps. aeruginosa 72.345; experiment: M.I.C. in vitro, nutrient agar dilution; conditions: Pseudomonas aeruginosa, 18 h; Table III; Pd. aeruginosa 72.345; read-out: M.I.C.
Method: as §1, §2, §3, §4

[4] = test system: Pr. morganii A.236; experiment: M.I.C. in vitro, nutrient agar dilution; conditions: Morganella morganii, 18 h; Table III; Pr. morganii A. 236; read-out: M.I.C.
Method: as §1, §2, §3, §4

[5] = test system: Esch. coli 111 B4; experiment: M.I.C. in vitro, nutrient agar dilution; conditions: Escherichia coli, 18 h; Table III; Esch. coli 111 B4
Method: as §1, §2, §3, §4

[6] = test system: Ps. aeruginosa A.22; experiment: M.I.C. in vitro, nutrient agar dilution; conditions: Pseudomonas aeruginosa, 18 h; Table III; Ps. aeruginosa A.22; read-out: M.I.C.
Method: as §1, §2, §3, §4

[7] = test system: Sh. sonnei I.P.S.; experiment: M.I.C. in vitro, nutrient agar dilution; conditions: Shigella sonnei, 18 h; Table III; Sh. sonnei I.P.S.; read-out: M.I.C.
Method: as §1, §2, §3, §4

[8] = test system: Strepto A 561; experiment: M.I.C. in vitro, nutrient agar dilution; conditions: 18 h; Table III; Strepto A 561
Method: as §1, §2, §3, §4

[9] = test system: B. subtilis; experiment: M.I.C. in vitro, nutrient agar dilution; conditions: Bacillus subtilis, 18 h; Table III; B. Subtilis; read-out: M.I.C.
Method: as §1, §2, §3, §4

[10] = test system: Pr. mirabilis Nig; experiment: M.I.C. in vitro, nutrient agar dilution; conditions: Proteus mirabilis, 18 h; Table III; Pr. mirabilis Nig; read-out: M.I.C.
Method: as §1, §2, §3, §4

[11] = test system: Klebs. pneum. 10.031; experiment: M.I.C. in vitro, nutrient agar dilution; conditions: 18 h; Table III; Klebs. pneum. 10.031; read-out: M.I.C.
Method: as §1, §2, §3, §4

[12] = test system: Serratia; experiment: M.I.C. in vitro, nutrient agar dilution; conditions: 18 h, Table III, read-out: M.I.C.
Method: as §1, §2, §3, §4

[13] = test system: Staph. 9.144; experiment: M.I.C. in vitro, nutrient agar dilution; conditions: 18 h; Table III; Staph. 9.144; read-out: M.I.C.
Method: as §1, §2, §3, §4

[14] = test system: Providentia 0223; experiment: M.I.C. in vitro, nutrient agar dilution; conditions: 18 h; Table III; Providentia 0223; read-out: M.I.C.
Method: as §1, §2, §3, §4

[15] = test system: Esch. coli 95 I.S.M.; experiment: M.I.C. in vitro, nutrient agar dilution; conditions: Escherichia coli, 18 h; Table III; Esch. coli 95 I.S.M.; read-out: M.I.C.
Method: as §1, §2, §3, §4

[16] = test system: Strepto D.M. 19; experiment: M.I.C. in vitro, nutrient agar dilution; conditions: 18 h; Table III; Strepto D.M. 19; read-out: M.I.C.
Method: as §1, §2, §3, §4

[17] = test system: Staph. 209 P; experiment: M.I.C. in vitro, nutrient agar dilution; conditions: 18 h; Table III; Staph. 209 P; read-out: M.I.C.
Method: as §1, §2, §3, §4

[18] = test system: S. oranienburg 1066; experiment: M.I.C. in vitro, nutrient agar dilution; conditions: Salmonella enterica, 18 h; Table III; S. oranienburg 1066; read-out: M.I.C.
Method: as §1, §2, §3, §4

[19] = test system: Arizona 6.211; experiment: M.I.C. in vitro, nutrient agar dilution; conditions: 18 h; Table III; Arizona 6.211; read-out: M.I.C.
Method: as §1, §2, §3, §4

[20] = test system: Bord. bronchis. 4.617; experiment: M.I.C. in vitro, nutrient agar dilution; conditions: 18 h; Table III; Bord. bronchis. 4.617; read-out: M.I.C.
Method: as §1, §2, §3, §4

[21] = test system: Esch. coli 54.127 O.M.S.; experiment: M.I.C. in vitro, nutrient agar dilution; conditions: Escherichia coli, 18 h; Table III; Esch. coli 54.127 O.M.S.; read-out: M.I.C.
Method: as §1, §2, §3, §4

[22] = test system: Salm. typhi 0901; experiment: microbe, parasite or virus in culture; conditions: Salmonella enterica, 18 h; Table III; Salm. typhi 0901
Method: as §1, §2, §3, §4

SMILES	MIC [1] [µg/mL]	MIC [2] [µg/mL]	MIC [3] [µg/mL]	MIC [4] [µg/mL]	MIC [5] [µg/mL]	MIC [6] [µg/mL]	MIC [7] [µg/mL]	MIC [8] [µg/mL]	MIC [9] [µg/mL]	MIC [10] [µg/mL]	MIC [11] [µg/mL]	MIC [12] [µg/mL]	MIC [13] [µg/mL]	MIC [14] [µg/mL]	MIC [15] [µg/mL]	MIC [16] [µg/mL]	MIC [17] [µg/mL]	MIC [18] [µg/mL]	MIC [19] [µg/mL]	MIC [20] [µg/mL]	other results
C=CCn1cc(C(=O)O)c(=O)c2cc(F)c(N3CCN(C)CC3)cc21 [Example 34, 1-Allyl-6-fluoro-7-(4-methylpiperazinyl)-4-oxo-1,4-dihydro-quinoline-3-carboxylic acid]	0.2 (≈ 0.579 µM)	0.4 to 0.8 (≈ 1.16 to 2.32 µM)	3.1 (≈ 8.98 µM)	0.05 to 0.2 (≈ 0.145 to 0.579 µM)	0.4 (≈ 1.16 µM)	3.1 (≈ 8.98 µM)	0.2 (≈ 0.579 µM)	50 (≈ 145 µM)	0.4 (≈ 1.16 µM)	0.8 to 1.6 (≈ 2.32 to 4.63 µM)	0.1 (≈ 0.29 µM)	0.05 to 0.4 (≈ 0.145 to 1.16 µM)	1.6 (≈ 4.63 µM)	12.5 (≈ 36.2 µM)	0.4 (≈ 1.16 µM)	6.2 to 12.5 (≈ 18 to 36.2 µM)	0.8 (≈ 2.32 µM)	12.5 (≈ 36.2 µM)	0.4 (≈ 1.16 µM)	0.2 (≈ 0.579 µM)	MIC [21]: 0.4 µg/mL (≈ 1.16 µM); MIC [22]: 0.1 µg/mL (≈ 0.29 µM)
C=Cn1cc(C(=O)O)c(=O)c2cc(F)c(N3CCN(C)CC3)cc21 [Example 41, 6-Fluoro-7-(4-methyl-piperazinyl)-4-oxo-1-vinyl-1,4-dihydro-quinoline-3-carboxylic acid]	0.05 (≈ 0.151 µM)	0.1 (≈ 0.302 µM)	0.8 (≈ 2.41 µM)	0.05 (≈ 0.151 µM)	0.1 (≈ 0.302 µM)	0.4 (≈ 1.21 µM)	0.1 (≈ 0.302 µM)	12.5 (≈ 37.7 µM)	0.1 (≈ 0.302 µM)	0.05 (≈ 0.151 µM)	0.1 (≈ 0.302 µM)	0.4 (≈ 1.21 µM)	0.2 (≈ 0.604 µM)	0.8 (≈ 2.41 µM)	0.1 (≈ 0.302 µM)	3.1 (≈ 9.36 µM)	0.1 (≈ 0.302 µM)	1.6 (≈ 4.83 µM)	0.1 (≈ 0.302 µM)	1.6 (≈ 4.83 µM)	MIC [21]: 0.1 µg/mL (≈ 0.302 µM); MIC [22]: 0.1 µg/mL (≈ 0.302 µM)
C=Cn1cc(C(=O)O)c(=O)c2cc(F)c(N3CCOCC3)cc21 [Example 42, 6-Fluoro-7-morpholino-4-oxo-1-vinyl-1,4-dihydro-quinoline-3-carboxylic acid]	0.8 (≈ 2.51 µM)	1.6 (≈ 5.03 µM)	6.2 (≈ 19.5 µM)	0.2 (≈ 0.628 µM)	0.8 (≈ 2.51 µM)	3.1 (≈ 9.74 µM)	0.8 (≈ 2.51 µM)	25 (≈ 78.5 µM)	0.2 (≈ 0.628 µM)	1.6 (≈ 5.03 µM)	0.8 (≈ 2.51 µM)	3.1 (≈ 9.74 µM)	1.6 (≈ 5.03 µM)	25 (≈ 78.5 µM)	0.8 (≈ 2.51 µM)	12.5 (≈ 39.3 µM)	0.8 (≈ 2.51 µM)	100 (≈ 314 µM)	0.8 (≈ 2.51 µM)	12.5 (≈ 39.3 µM)	MIC [21]: 0.8 µg/mL (≈ 2.51 µM); MIC [22]: 0.8 µg/mL (≈ 2.51 µM)
